Assay results: patent publication US20070042409A1 (priority 2005, published 2007)
Where two headings read alike, the source gives them in different places. No end group written: not given here.

Experiments:
[1] = test system: obestatin receptors, crude plasma membrane preparation of rat jejunum; experiment: I^125-obestatin binding to crude plasma membrane preparation of rat jejunum; details: for inhibition of I^125-obestatin binding: jejunum preparation; for competition of I^125-obestatin binding: rat jejunum preparation
Description: Mixture of the peptide (20 μg) and 1 mCi [^125I] NaI was transferred to precoated Iodogen vials and incubated for 4 min. The ^125I-labeled peptide was applied to a Sep-Pak C18 cartridge (Waters, Milford, Mass.) before elution with 60% acetonitrile/0.1% TFA. For radioligand binding assays, rat jejunum or other tissues were washed with buffer A (20 mM Hepes, 5 mM EDTA, 1 mM dithiothreitol (DTT), 10 μM amidinophenylmethanesulfonyl fluoride, 5 mg/L leupeptin, 100 mM KCl, pH 7.5), cut into small pieces and homogenized using a Physcotron motorized homogenizer. The homogenates were centrifuged at 1,000 g for 5 min. and the supernatant was centrifuged at 300,000 g for 1 h at 2° C. The pellets (crude membrane fractions) were resuspended with buffer A without KCl, quickly frozen under liquid nitrogen, and stored at −80° C. until use. […] After incubation, the tubes were centrifuged for 10 min. at 10,000 g, and the pellet was washed twice in ice-cold PBS before counting using a γ-spectrophotometer. Specific binding was calculated by subtracting nonspecific binding from total binding.

GPR39 [2] = target: T1, GPR39 (Homo sapiens, UniProt O43194); experiment: cAMP production in CHO cells overexpressing GPR39; assay type: cell-based
T1 construct: expressed in transfected cells; host or cells: CHO cells
T1 sequence (O43194 1-453): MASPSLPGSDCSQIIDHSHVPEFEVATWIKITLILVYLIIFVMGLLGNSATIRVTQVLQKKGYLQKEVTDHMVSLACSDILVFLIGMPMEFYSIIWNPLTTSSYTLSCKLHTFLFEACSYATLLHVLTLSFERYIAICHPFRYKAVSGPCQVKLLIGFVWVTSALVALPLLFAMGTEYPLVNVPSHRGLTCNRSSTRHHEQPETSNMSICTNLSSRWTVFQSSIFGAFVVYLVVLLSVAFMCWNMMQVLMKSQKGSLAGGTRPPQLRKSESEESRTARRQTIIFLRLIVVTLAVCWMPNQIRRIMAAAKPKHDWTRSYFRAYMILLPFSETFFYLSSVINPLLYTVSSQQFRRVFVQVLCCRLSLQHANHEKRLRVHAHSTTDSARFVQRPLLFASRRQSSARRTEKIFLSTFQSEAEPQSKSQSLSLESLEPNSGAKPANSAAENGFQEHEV

GPR39 [3] = target: T1, GPR39; experiment: I^125-obestatin binding to CHO cells overexpressing GPR39
[4] = Food intake in food-deprived mice after intraperitoneal peptide treatment; assay type: in vivo; details: adult male mice, deprived of food 16 h, measured at 1, 3 and 5 h
Description: (§1) Analysis of gastrointestinal functions. Eight-week-old C57BL6 male mice were housed individually in a regulated environment. Before intraperitoneal treatment with different peptides, mice were deprived of food for 16 h with free access to water. Food intake was measured by placing preweighed pellets in the cage and weighing uneaten pellets at 1, 3 and 5 h after treatment. To estimate gastric emptying responses, mice deprived of food for 16 h were given food pellets for 90 min. before injection of different hormones or saline. After treatment, mice were deprived of food again and killed 2 h later. The stomach was excised at the pylorus and cardia before weighing. Gastric emptying was calculated by subtracting the stomach weight of treated mice from those killed at the time of the hormone injection.

Gastric emptying in mice = assay type: in vivo; details: adult male mice, intraperitoneal, killed 2 h after treatment
Description: as §1

[5] = Body weight gain in adult male rats; assay type: in vivo; details: for body weight: 1 μmol/kg body weight, thrice daily
[6] = test system: cultured rat pituitary cells; experiment: GH secretion from cultured rat pituitary cells
Description: Pituitary cell cultures. Anterior pituitaries were removed from adult male Sprague-Dawley rats and dispersed with 0.3% collagenase, 0.1% hyaluronidase and DNase I (10 μg/ml). The cell suspension was centrifuged at 300 g for 5 min. and the cells were washed twice before incubated in DMEM containing 0.1% bovine serum albumin (BSA), penicillin (100 units/ml), streptomycin (100 μg/ml), fungizone (2.5 μg/ml) and 10% fetal calf serum. Cells were seeded onto poly-lysine-coated 24-well plates at a density of 2˜3×10^5 cells/well. Cultures were kept in a humidified atmosphere of 5% CO2 and 95% air at 37° C. […] Media was removed and rat GH was measured by an ELISA.

GPR39 [7] = target: T1, GPR39; experiment: SRE promoter-luciferase reporter in cells cotransfected with GPR39; assay type: cell-based; details: cotransfection of GPR39 and SRE promoter-luciferase construct
V50-GPR39 = target: T2, V50-GPR39 (Homo sapiens, UniProt O43194, A50V); details: ratio of affinities to obestatin
T2 sequence (O43194 1-453 A50V): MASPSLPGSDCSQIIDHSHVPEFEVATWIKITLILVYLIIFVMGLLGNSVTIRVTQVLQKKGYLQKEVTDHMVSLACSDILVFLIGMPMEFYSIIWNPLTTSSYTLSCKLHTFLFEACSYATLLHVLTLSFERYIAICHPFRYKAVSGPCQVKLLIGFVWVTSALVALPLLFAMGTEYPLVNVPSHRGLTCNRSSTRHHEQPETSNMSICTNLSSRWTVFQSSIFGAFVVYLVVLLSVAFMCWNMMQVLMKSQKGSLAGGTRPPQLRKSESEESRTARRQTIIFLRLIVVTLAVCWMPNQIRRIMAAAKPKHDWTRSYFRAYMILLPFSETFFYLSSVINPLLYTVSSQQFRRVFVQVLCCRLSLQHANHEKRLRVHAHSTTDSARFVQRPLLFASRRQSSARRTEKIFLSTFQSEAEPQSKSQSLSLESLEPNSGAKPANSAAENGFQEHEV

GHSR = target: T3, GHSR (Homo sapiens, UniProt Q92847); experiment: cAMP production in CHO cells expressing GHSR, with or without chimeric Gsq protein; assay type: cell-based; details: without Gsq
T3 construct: expressed in transfected cells; host or cells: CHO cells

jejunum muscle strips = experiment: Isometric force measurement of jejunum muscle strips
Description: Isometric force measurements. Jejunum muscle strips (˜1 cm in length) were cut along the longitudinal axis of the circular muscle layer, and the mucosa was removed to minimize endogenous peptides. Muscle strips were mounted to a TIS8105R (Kent Scientific Corporation, Torrington, Conn.) isometric strain gauge and immersed in a 5 ml organ bath maintained at 37° C. with oxygenated KRB [Krebs-Ringer phosphate buffer, consisting of 50 mM HEPES, 100 mM NaCl, 5 mM KCl, and 1 mM each of MgCl2, NaH2PO4, and CaCl2] as described earlier (Porcher et al. (2005) Am J Physiol Gastrointest Liver Physiol 288(5): G1091-103.). A resting force of 1.0 g was applied to intestinal muscles and a 1.5 h equilibration period was allowed before testing of different peptides during a 5 min. period by incubating muscles with peptides at desired concentrations. After each test, muscle strips were washed with fresh KRB for 20 min. to allow full recovery of basal contractile activities. Maximal contraction was evaluated at the beginning and end of each experiment following treatment with 10 μM of acetylcholine chloride. Contractility data were digitized and stored in a computer using the Acknowledge software (MP 100, Biopac Systems, Inc., Goleta, Calif.). Magnitude of contractile strength is expressed as % of maximal contraction induced by acetylcholine.

[8] = target: T4, GPR39 (wild type A50-GPR39) (human, UniProt O43194 1-453); experiment: displacement of I^125-obestatin from GPR39
T4 construct: also called obestatin receptor; orphan receptor GPR39
T4 sequence: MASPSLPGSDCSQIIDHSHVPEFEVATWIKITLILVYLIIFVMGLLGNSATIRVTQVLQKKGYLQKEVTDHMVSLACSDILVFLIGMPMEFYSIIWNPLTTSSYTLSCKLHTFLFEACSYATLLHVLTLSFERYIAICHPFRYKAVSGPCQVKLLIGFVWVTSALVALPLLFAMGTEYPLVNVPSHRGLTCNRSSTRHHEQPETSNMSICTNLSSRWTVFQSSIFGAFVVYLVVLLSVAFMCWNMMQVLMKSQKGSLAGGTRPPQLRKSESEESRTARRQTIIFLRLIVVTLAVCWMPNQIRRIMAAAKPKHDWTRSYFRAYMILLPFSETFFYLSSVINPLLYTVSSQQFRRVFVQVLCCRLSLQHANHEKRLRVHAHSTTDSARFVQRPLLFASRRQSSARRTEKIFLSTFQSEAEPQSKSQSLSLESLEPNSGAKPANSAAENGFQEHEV

T3 sequence (Q92847 whole entry, species assumed): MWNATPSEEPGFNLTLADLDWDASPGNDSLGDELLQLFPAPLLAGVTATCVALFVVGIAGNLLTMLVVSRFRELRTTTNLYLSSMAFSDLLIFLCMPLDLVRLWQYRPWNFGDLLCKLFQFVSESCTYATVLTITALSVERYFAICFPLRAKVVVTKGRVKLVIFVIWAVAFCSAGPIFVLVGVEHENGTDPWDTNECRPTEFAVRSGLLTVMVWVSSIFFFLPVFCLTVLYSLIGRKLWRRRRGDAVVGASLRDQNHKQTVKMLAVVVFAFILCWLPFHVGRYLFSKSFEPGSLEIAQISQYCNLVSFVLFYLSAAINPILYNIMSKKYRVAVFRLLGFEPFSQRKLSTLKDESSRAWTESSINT

For Nc1nc2c(ncn2[C@@H]2O[C@H](COP(=O)(O)OP(=O)(O)OP(O)(O)=S)[C@@H](O)[C@H]2O)c(=O)[nH]1 [GTPγS], the “inhibition of I^125-obestatin binding” value ([1]; GTPγS 1 uM) was 5%, the “inhibition of I^125-obestatin binding” value ([1]; GTPγS 10 uM) was 20% and the “inhibition of I^125-obestatin binding” value ([1]; GTPγS 100 uM) was 45%.

In the case of CC[C@H](C)[C@H](NC(=O)[C@@H]1CCCN1C(=O)[C@@H](NC(=O)[C@@H](N)Cc1ccccc1)C(C)C)C(=O)N[C@@H](Cc1ccccc1)C(=O)N[C@H](C(=O)N[C@@H](Cc1ccc(O)cc1)C(=O)NCC(=O)N[C@@H](CCC(=O)O)C(=O)N[C@@H](CC(C)C)C(=O)N[C@@H](CCC(N)=O)C(=O)N[C@@H](CCCNC(=N)N)C(=O)N[C@@H](CCSC)C(=O)N[C@@H](CCC(N)=O)C(=O)N[C@@H](CCC(=O)O)C(=O)N[C@@H](CCCCN)C(=O)N[C@@H](CCC(=O)O)C(=O)N[C@@H](CCCNC(=N)N)C(=O)N[C@@H](CC(N)=O)C(=O)N[C@@H](CCCCN)C(=O)NCC(=O)N[C@@H](CCC(N)=O)C(=O)O)[C@@H](C)O [motilin], the cAMP production (GPR39 [2]) is reported as “ineffective” and the “competition of I^125-obestatin binding” value [1] is reported as “not competed”.

For “(des1-10)obestatin: truncated obestatin lacking residues 1-10 (LSGVQYQQHSQAL)”, the “competition of obestatin binding to GPR39” value (GPR39 [3]) was “less effective” and the “competition of I^125-obestatin binding” value [1] was “less effective than obestatin”.

With “NA-obestatin: non-amidated obestatin, synthesized by GL Biochem” the food intake [4] was “minimally effective”, the “competition of I^125-obestatin binding” value [1] was “less effective than obestatin” and the gastric emptying activity (Gastric emptying in mice) was “less effective”.

For “ghrelin: n-octanoylated 28 amino acid peptide, endogenous GHSR ligand; purchased from Phoenix Pharmaceuticals (GSSFLSPEHQRVQQRKESKKPPAKLQPR; not fully specified (residue 3); UniProt Q9UBU3 24-51, looked up) [reference compound]”, the food intake [4] was “minimally effective”, the body weight [5] was “increased body weight” and the GH secretion [6] was 2.32+/−0.08 ng/culture. For the same molecule, the cAMP production (GPR39 [2]) was “ineffective”, the “competition of I^125-obestatin binding” value [1] was “not competed” and the gastric emptying activity (Gastric emptying in mice) was “ineffective”.

With “neuromedin U: peptide purchased from Phoenix Pharmaceuticals (FRVDEEFQSPFASQSRGYFLFRPRN; ends and bridges not checked; UniProt P48645 142-166, looked up)” the “competition of I^125-obestatin binding” value [1] was “not competed”.

With “synthesized amidated human obestatin, 23 residue peptide derived from proghrelin; FNAPFDVGIKLSGVQYQQHSQAL-NH2 (SEQ ID NO:4); also used iodinated as radioligand” the SRE promoter-luciferase signaling (GPR39 [7]) was “conferred obestatin”, the food intake [4] was “suppressed food intake for five hours in a dose-dependent manner” and the body weight [5] was “suppressed body weight gain”. For the same molecule, the “body weight, cotreatment with ghrelin” value ([5]; cotreatment of obestatin with ghrelin) was “antagonized the orexigenic action of ghrelin”, the “affinity of V50-GPR39 relative to wild type A50-GPR39” value (V50-GPR39) was “two-fold higher affinity” and the cAMP response (GHSR) was “did not respond”. The GH secretion ([6]; 100 nM, cultured rat pituitary cells, 1 h, control 1.04+/−0.03) was 1.04+/−0.03 ng/culture, the cAMP production (GPR39 [2]) was “dose-dependent increases in cAMP production” and the “competition of obestatin binding to GPR39” value (GPR39 [3]) was “competed”. The Kd ([1]; labeled obestatin, rat jejunum crude plasma membrane) was 4 nM, the “contractile activity of jejunum muscle strips in presence of ghrelin” value (jejunum muscle strips; effect on stimulatory effect of ghrelin) was “antagonized the known stimulatory effect of ghrelin” and the “contractile activity of jejunum muscle strips” value (jejunum muscle strips; isometric force measurement) was “decreased contractile activity”. The gastric emptying activity (Gastric emptying in mice) was “sustained suppression of gastric emptying activity”.

For “urocortin: peptide injected in mice as positive control for food intake suppression (DNPSLSIDLTFHLLRTLLELARTQSQRERAEQNRIIFDSV; ends and bridges not checked; UniProt P55089 83-122, looked up) [reference compound]”, the food intake [4] was “suppressed food intake”.

B1: (des1-10)obestatin (peptide)
peptide: LSGVQYQQHSQAL
modifications: ends and bridges not checked
notes: Synthetic obestatin lacking residues 1-10; The range 11-23 is derived from the name; also called truncated (des1-10)obestatin
B1: binds [8].
